Data from the NIST ThermoML archive (doi:10.1016/j.tca.2013.07.012).

Experiment: xn = mol fraction of the nth substance listed
Conditions: 101 kPa, Liquid, Vibrating tube method

OCC(O)CO [glycerol] + O
Conditions	mass density [kg/m3]
274.15 K, x1 = 0.00209	1002.52
274.15 K, x1 = 0.00439	1005.4
274.15 K, x1 = 0.0051	1006.27
274.15 K, x1 = 0.00657	1008.08
274.15 K, x1 = 0.01072	1013.09
274.15 K, x1 = 0.01633	1019.67
275.15 K, x1 = 0.00209	1002.55
275.15 K, x1 = 0.00439	1005.42
275.15 K, x1 = 0.0051	1006.29
275.15 K, x1 = 0.00657	1008.09
275.15 K, x1 = 0.01072	1013.08
275.15 K, x1 = 0.01633	1019.63
276.15 K, x1 = 0.00209	1002.56
276.15 K, x1 = 0.00439	1005.42
276.15 K, x1 = 0.0051	1006.29
276.15 K, x1 = 0.00657	1008.08
276.15 K, x1 = 0.01072	1013.06
276.15 K, x1 = 0.01633	1019.58
277.15 K, x1 = 0.00209	1002.56
277.15 K, x1 = 0.00439	1005.41
277.15 K, x1 = 0.0051	1006.27
277.15 K, x1 = 0.00657	1008.06
277.15 K, x1 = 0.01072	1013.02
277.15 K, x1 = 0.01633	1019.51
278.15 K, x1 = 0.00209	1002.54
278.15 K, x1 = 0.00439	1005.38
278.15 K, x1 = 0.0051	1006.24
278.15 K, x1 = 0.00657	1008.02
278.15 K, x1 = 0.01072	1012.95
278.15 K, x1 = 0.01633	1019.43
278.15 K, x1 = 0.03504	1039.54
278.15 K, x1 = 0.05086	1054.94
278.15 K, x1 = 0.06775	1069.92
278.15 K, x1 = 0.1127	1103.61
278.15 K, x1 = 0.1559	1129.3
278.15 K, x1 = 0.206	1153.22
278.15 K, x1 = 0.256	1172.3
278.15 K, x1 = 0.3311	1194.33
278.15 K, x1 = 0.4012	1210
278.15 K, x1 = 0.4907	1225.46
278.15 K, x1 = 0.5828	1237.72
278.15 K, x1 = 0.6857	1248.63
278.15 K, x1 = 0.7494	1254.28
278.15 K, x1 = 0.8101	1259.12
278.15 K, x1 = 0.8528	1262.2
278.15 K, x1 = 0.882	1264.21
278.15 K, x1 = 0.9143	1266.2
278.15 K, x1 = 0.9408	1267.71
278.15 K, x1 = 0.9578	1268.67
278.15 K, x1 = 0.9792	1269.86
278.15 K, x1 = 0.9895	1270.39
278.15 K, x1 = 1	1270.87
279.15 K, x1 = 0.00209	1002.51
279.15 K, x1 = 0.00439	1005.34
279.15 K, x1 = 0.0051	1006.19
279.15 K, x1 = 0.00657	1007.97
279.15 K, x1 = 0.01072	1012.88
279.15 K, x1 = 0.01633	1019.34
280.15 K, x1 = 0.00209	1002.46
280.15 K, x1 = 0.00439	1005.28
280.15 K, x1 = 0.0051	1006.13
280.15 K, x1 = 0.00657	1007.91
280.15 K, x1 = 0.01072	1012.8
280.15 K, x1 = 0.01633	1019.23
281.15 K, x1 = 0.00209	1002.4
281.15 K, x1 = 0.00439	1005.21
281.15 K, x1 = 0.0051	1006.06
281.15 K, x1 = 0.00657	1007.82
281.15 K, x1 = 0.01072	1012.7
281.15 K, x1 = 0.01633	1019.12
282.15 K, x1 = 0.00209	1002.33
282.15 K, x1 = 0.00439	1005.13
282.15 K, x1 = 0.0051	1005.97
282.15 K, x1 = 0.00657	1007.73
282.15 K, x1 = 0.01072	1012.6
282.15 K, x1 = 0.01633	1018.99
283.15 K, x1 = 0.00209	1002.24
283.15 K, x1 = 0.00439	1005.03
283.15 K, x1 = 0.0051	1005.87
283.15 K, x1 = 0.00657	1007.62
283.15 K, x1 = 0.01072	1012.47
283.15 K, x1 = 0.01633	1018.85
288.15 K, x1 = 0.00209	1001.6
288.15 K, x1 = 0.00439	1004.35
288.15 K, x1 = 0.0051	1005.18
288.15 K, x1 = 0.00657	1006.91
288.15 K, x1 = 0.01072	1011.69
288.15 K, x1 = 0.01633	1017.97
288.15 K, x1 = 0.03504	1037.45
288.15 K, x1 = 0.05086	1052.38
288.15 K, x1 = 0.06775	1066.9
288.15 K, x1 = 0.1127	1099.65
288.15 K, x1 = 0.1559	1124.77
288.15 K, x1 = 0.206	1148.15
288.15 K, x1 = 0.256	1166.85
288.15 K, x1 = 0.3311	1188.67
288.15 K, x1 = 0.4012	1204.31
288.15 K, x1 = 0.4907	1219.67
288.15 K, x1 = 0.5828	1231.79
288.15 K, x1 = 0.6857	1242.54
288.15 K, x1 = 0.7494	1248.04
288.15 K, x1 = 0.8101	1252.82
288.15 K, x1 = 0.8528	1255.81
288.15 K, x1 = 0.882	1257.79
288.15 K, x1 = 0.9143	1259.78
288.15 K, x1 = 0.9408	1261.27
288.15 K, x1 = 0.9578	1262.21
288.15 K, x1 = 0.9792	1263.39
288.15 K, x1 = 0.9895	1263.91
288.15 K, x1 = 1	1264.4
293.15 K, x1 = 0.00209	1000.68
293.15 K, x1 = 0.00439	1003.39
293.15 K, x1 = 0.0051	1004.21
293.15 K, x1 = 0.00657	1005.92
293.15 K, x1 = 0.01072	1010.64
293.15 K, x1 = 0.01633	1016.84
293.15 K, x1 = 0.03504	1036.06
293.15 K, x1 = 0.05086	1050.82
293.15 K, x1 = 0.06775	1065.15
293.15 K, x1 = 0.1127	1097.5
293.15 K, x1 = 0.1559	1122.35
293.15 K, x1 = 0.206	1145.51
293.15 K, x1 = 0.256	1164.09
293.15 K, x1 = 0.3311	1185.75
293.15 K, x1 = 0.4012	1201.28
293.15 K, x1 = 0.4907	1216.63
293.15 K, x1 = 0.5828	1228.62
293.15 K, x1 = 0.6857	1239.29
293.15 K, x1 = 0.7494	1244.78
293.15 K, x1 = 0.8101	1249.51
293.15 K, x1 = 0.8528	1252.47
293.15 K, x1 = 0.882	1254.43
293.15 K, x1 = 0.9143	1256.38
293.15 K, x1 = 0.9408	1257.87
293.15 K, x1 = 0.9578	1258.81
293.15 K, x1 = 0.9792	1259.97
293.15 K, x1 = 0.9895	1260.49
293.15 K, x1 = 1	1260.99
298.15 K, x1 = 0.00209	999.49
